Laboratory results taken from patent US4477443A, “Tylosin derivatives, their preparation and pharmaceutical compositions containing them” (Zaidan Hojin Biselbutsu Kagaku Kenkyu Kai (Microbial …, priority 1981, dated 1984).
≈ marks a conversion by molar mass, not a printed value. Where two headings read alike, the source gives them in different places.

Experiments:
Assay type in all cases: cell-based
[1] = test system: Staph. aureus 193; assay: antimicrobial activity (MIC), Table I; conditions: Staphylococcus aureus; Staph. aureus 193; read-out: MIC
[2] = test system: Staph. aureus MS 9861; assay: antimicrobial activity (MIC), Table I; conditions: Staphylococcus aureus, MS9861; Staph. aureus MS 9861; read-out: MIC
[3] = test system: E. coli K-12 ML 1410; assay: antimicrobial activity (MIC), Table I; conditions: Escherichia coli, K12ML1410
[4] = test system: Staph. aureus 209 P; assay: antimicrobial activity (MIC), Table I; conditions: Staphylococcus aureus; Staph. aureus 209 P; read-out: MIC
[5] = test system: Coryn. bovis 1810; assay: antimicrobial activity (MIC), Table I; conditions: Corynebacterium bovis; Coryn. bovis 1810; read-out: MIC
[6] = test system: Pro. vulgaris OX-19; assay: antimicrobial activity (MIC), Table I; conditions: Proteus vulgaris, OX19
[7] = test system: E. coli K-12 LA 290 R 55; assay: antimicrobial activity (MIC), Table I; conditions: Escherichia coli
[8] = test system: E. coli K-12; assay: antimicrobial activity (MIC), Table I; conditions: Escherichia coli, K12; E. coli K-12; read-out: MIC
[9] = test system: E. coli K-12 R-5; assay: antimicrobial activity (MIC), Table I; conditions: Escherichia coli, K12R5; E. coli K-12 R-5; read-out: MIC
[10] = test system: Kleb. pneumoniae PCI 602; assay: antimicrobial activity (MIC), Table I; conditions: Klebsiella pneumoniae, PCI602; Kleb. pneumoniae PCI 602; read-out: MIC
[11] = test system: Shigella dysenteriae JS 11910; assay: antimicrobial activity (MIC), Table I; conditions: JS11910
[12] = test system: Sal. enteritidis 1891; assay: antimicrobial activity (MIC), Table I; conditions: Salmonella enterica; Sal. enteritidis 1891; read-out: MIC
[13] = test system: Sarcina lutea PCI 1001; assay: antimicrobial activity (MIC), Table I; conditions: Micrococcus luteus, PCI1001; Sarcina lutea PCI 1001; read-out: MIC
[14] = test system: E. coli NIHJ; assay: antimicrobial activity (MIC), Table I; conditions: Escherichia coli; E. coli NIHJ; read-out: MIC
[15] = test system: B. subtilis NRRL B-558; assay: antimicrobial activity (MIC), Table I; conditions: Bacillus subtilis, NRRLB558; B. subtilis NRRL B-558; read-out: MIC
[16] = test system: Staph. epidermidis IID 866; assay: antimicrobial activity (MIC), Table II; conditions: Staphylococcus epidermidis, IID866
[17] = test system: B. subtilis ATCC 6633; assay: antimicrobial activity (MIC), Table II; conditions: Bacillus subtilis, ATCC6633; B. subtilis ATCC 6633; read-out: MIC
[18] = test system: Staph. aureus ATCC 6538P; assay: antimicrobial activity (MIC), Table II; conditions: Staphylococcus aureus, ATCC6538P
[19] = test system: B. cereus; assay: antimicrobial activity (MIC), Table II; conditions: Bacillus cereus; B. cereus; read-out: MIC
[20] = test system: Staph. aureus 226; assay: antimicrobial activity (MIC), Table II; conditions: Staphylococcus aureus
[21] = test system: Staph. aureus KC-11; assay: antimicrobial activity (MIC), Table II; conditions: Staphylococcus aureus, KC11
[22] = test system: Staph. epidermidis IID 886; assay: antimicrobial activity (MIC), Table II; conditions: Staphylococcus epidermidis, IID886
[23] = Pro. vulgaris OX-19, read-out: MIC
[24] = Staph. aureus ATCC 6538P, read-out: MIC
[25] = Staph. aureus 226, read-out: MIC
[26] = Staph. aureus KC-11, read-out: MIC

MIC [16] [µg/mL]	MIC [17] [µg/mL]	MIC [18, 24] [µg/mL]	MIC [19] [µg/mL]	MIC [20, 25] [µg/mL]	SMILES	MIC [1] [µg/mL]	MIC [2] [µg/mL]	MIC [3] [µg/mL]	MIC [4] [µg/mL]	MIC [5] [µg/mL]	MIC [7] [µg/mL]	MIC [8] [µg/mL]	MIC [9] [µg/mL]	MIC [10] [µg/mL]	MIC [11] [µg/mL]	MIC [12] [µg/mL]	MIC [13] [µg/mL]	MIC [14] [µg/mL]	MIC [15] [µg/mL]	MIC [6, 23] [µg/mL]	other results
					CCC1OC(=O)CC(O)C(C)C(OC2OC(C)C(O)C(N(C)C)C2O)C(CC=O)CC(C)C(=O)C=CC(C)=CC1CN(CC)CC (stereo not drawn) [Example 5, 23-deoxy-23-diethylamino mycaminosyl tylonolide]	0.78 (≈ 1.19 µM)	12.5 (≈ 19.1 µM)	3.12 (≈ 4.78 µM)	0.78 (≈ 1.19 µM)	0.78 (≈ 1.19 µM)	3.12 (≈ 4.78 µM)	1.56 (≈ 2.39 µM)	1.56 (≈ 2.39 µM)	1.56 (≈ 2.39 µM)	1.56 (≈ 2.39 µM)	3.12 (≈ 4.78 µM)	< 0.2	1.56 (≈ 2.39 µM)	0.78 (≈ 1.19 µM)		MIC [6]: 1.56 µg/mL (≈ 2.39 µM)
					CCCN(CCC)CC1C=C(C)C=CC(=O)C(C)CC(CC=O)C(OC2OC(C)C(O)C(N(C)C)C2O)C(C)C(O)CC(=O)OC1CC (stereo not drawn) [Example 6, 23-deoxy-23-dipropylaminomycaminosyl tylonolide]	< 0.2	1.56 (≈ 2.29 µM)	3.12 (≈ 4.58 µM)	< 0.2	< 0.2	1.56 (≈ 2.29 µM)	1.56 (≈ 2.29 µM)	1.56 (≈ 2.29 µM)	0.78 (≈ 1.15 µM)	0.39 (≈ 0.573 µM)	1.56 (≈ 2.29 µM)	< 0.2	0.78 (≈ 1.15 µM)	0.39 (≈ 0.573 µM)	1.56 (≈ 2.29 µM)	
					CCC1OC(=O)CC(O)C(C)C(OC2OC(C)CC(N(C)C)C2O)C(CC=O)CC(C)C(=O)C=CC(C)=CC1CN(C)C (stereo not drawn) [Example 9, 23,4'-dideoxy-23-dimethylaminomycaminosyl tylonolide]	< 0.2	0.39 (≈ 0.641 µM)	0.39 (≈ 0.641 µM)	< 0.2	0.2 (≈ 0.329 µM)	0.39 (≈ 0.641 µM)	0.39 (≈ 0.641 µM)	0.39 (≈ 0.641 µM)	0.2 (≈ 0.329 µM)	< 0.2	< 0.2	0.2 (≈ 0.329 µM)	< 0.2	< 0.2		MIC [6]: 0.78 µg/mL (≈ 1.28 µM)
					CCC1OC(=O)CC(O)C(C)C(OC2OC(C)CC(N(C)C)C2O)C(CC=O)CC(C)C(=O)C=CC(C)=CC1CN(CC)CC (stereo not drawn) [Example 10, 23,4'-dideoxy-23-diethylaminomycaminosyl tylonolide]	< 0.2	0.78 (≈ 1.22 µM)		< 0.2	< 0.2	0.39 (≈ 0.612 µM)	0.39 (≈ 0.612 µM)	0.39 (≈ 0.612 µM)	0.2 (≈ 0.314 µM)	< 0.2	0.39 (≈ 0.612 µM)	< 0.2	< 0.2	< 0.2	0.39 (≈ 0.612 µM)	MIC ([3]; E. coli K-12 ML 1410, read-out: MIC): 0.39 µg/mL (≈ 0.612 µM)
					CCC1OC(=O)CC(O)C(C)C(OC2OC(C)C(O)C(N(C)C)C2O)C(CC=O)CC(C)C(=O)C=CC(C)=CC1CN1CCCCC1 (stereo not drawn) [Example 13, 23-deoxy-23-piperidinomycaminosyl tylonolide]	0.39 (≈ 0.587 µM)	0.78 (≈ 1.17 µM)	3.12 (≈ 4.69 µM)	0.39 (≈ 0.587 µM)	< 0.2	1.56 (≈ 2.35 µM)	1.56 (≈ 2.35 µM)	1.56 (≈ 2.35 µM)	0.39 (≈ 0.587 µM)	< 0.2	0.78 (≈ 1.17 µM)	< 0.2	0.78 (≈ 1.17 µM)	0.39 (≈ 0.587 µM)	1.56 (≈ 2.35 µM)	
0.78 (≈ 1.2 µM)	0.78 (≈ 1.2 µM)	0.78 (≈ 1.2 µM)	0.39 (≈ 0.599 µM)	1.56 (≈ 2.4 µM)	CCC1OC(=O)CC(O)C(C)C(OC2OC(C)CC(N(C)C)C2O)C(CC=O)CC(C)C(=O)C=CC(C)=CC1CN(CC)C(C)=O (stereo not drawn) [Example 47, 23-N-acetylethylamino-23,4'-dideoxymycaminosyl tylonolide]																MIC [21, 26]: 0.78 µg/mL (≈ 1.2 µM)
0.39 (≈ 0.585 µM)	0.78 (≈ 1.17 µM)	0.78 (≈ 1.17 µM)	0.39 (≈ 0.585 µM)	0.78 (≈ 1.17 µM)	CCC1OC(=O)CC(O)C(C)C(OC2OC(C)CC(N(C)C)C2O)C(CC=O)CC(C)C(=O)C=CC(C)=CC1COC(=O)CN(C)C (stereo not drawn) [Example 51, 23-O-dimethylaminoacetyl-4'-deoxymycaminosyltylonolide]																MIC [21, 26]: 0.78 µg/mL (≈ 1.17 µM)
0.78 (≈ 1.13 µM)	1.56 (≈ 2.25 µM)	0.78 (≈ 1.13 µM)	1.56 (≈ 2.25 µM)	0.78 (≈ 1.13 µM)	CCC1OC(=O)CC(O)C(C)C(OC2OC(C)CC(N(C)C)C2O)C(CC=O)CC(C)C(=O)C=CC(C)=CC1COC(=O)CN1CCCC1 (stereo not drawn) [Example 52, 23-O-pyrrolidinoacetyl-4'-deoxymycaminosyl tylonolide]																MIC [21, 26]: 0.78 µg/mL (≈ 1.13 µM)

SMILES	MIC [16] [µg/mL]	MIC [17] [µg/mL]	MIC [18, 24] [µg/mL]	MIC [19] [µg/mL]	MIC [20, 25] [µg/mL]	MIC [1] [µg/mL]	MIC [2] [µg/mL]	MIC [3] [µg/mL]	MIC [4] [µg/mL]	MIC [5] [µg/mL]	MIC [7] [µg/mL]	MIC [8] [µg/mL]	MIC [9] [µg/mL]	MIC [10] [µg/mL]	MIC [11] [µg/mL]	MIC [12] [µg/mL]	MIC [13] [µg/mL]	MIC [14] [µg/mL]	MIC [15] [µg/mL]	MIC [6, 23] [µg/mL]	other results
CCC1OC(=O)CC(O)C(C)C(OC2OC(C)CC(N(C)C)C2O)C(CC=O)CC(C)C(=O)C=CC(C)=CC1COC(=O)CSc1ccccn1 (stereo not drawn) [Example 53, 23-O-(pyridine-2-thioyl)acetyl-4'-deoxymycaminosyl tylonolide]		0.39 (≈ 0.532 µM)		≤ 0.2																	MIC [22]: ≤ 0.2 µg/mL; MIC [18]: 0.39 µg/mL (≈ 0.532 µM); MIC [20]; 226: 0.39 µg/mL (≈ 0.532 µM); MIC [21]: 0.39 µg/mL (≈ 0.532 µM)
